Experiments:
[1] = molecular target: PIK3CD (Human) (UniProt O00329); assay: Cell-Based Assay; conditions: raji
[2] = molecular target: PIK3CG (human) (UniProt P48736); assay: Enzyme Assay
[3] = molecular target: PIK3CD (Human) (UniProt O00329); assay: Enzyme Assay
[4] = molecular target: PIK3CB (Human) (UniProt P42338); assay: Enzyme Assay
Chain of PIK3CB (Human) (P42338 whole entry, looked up): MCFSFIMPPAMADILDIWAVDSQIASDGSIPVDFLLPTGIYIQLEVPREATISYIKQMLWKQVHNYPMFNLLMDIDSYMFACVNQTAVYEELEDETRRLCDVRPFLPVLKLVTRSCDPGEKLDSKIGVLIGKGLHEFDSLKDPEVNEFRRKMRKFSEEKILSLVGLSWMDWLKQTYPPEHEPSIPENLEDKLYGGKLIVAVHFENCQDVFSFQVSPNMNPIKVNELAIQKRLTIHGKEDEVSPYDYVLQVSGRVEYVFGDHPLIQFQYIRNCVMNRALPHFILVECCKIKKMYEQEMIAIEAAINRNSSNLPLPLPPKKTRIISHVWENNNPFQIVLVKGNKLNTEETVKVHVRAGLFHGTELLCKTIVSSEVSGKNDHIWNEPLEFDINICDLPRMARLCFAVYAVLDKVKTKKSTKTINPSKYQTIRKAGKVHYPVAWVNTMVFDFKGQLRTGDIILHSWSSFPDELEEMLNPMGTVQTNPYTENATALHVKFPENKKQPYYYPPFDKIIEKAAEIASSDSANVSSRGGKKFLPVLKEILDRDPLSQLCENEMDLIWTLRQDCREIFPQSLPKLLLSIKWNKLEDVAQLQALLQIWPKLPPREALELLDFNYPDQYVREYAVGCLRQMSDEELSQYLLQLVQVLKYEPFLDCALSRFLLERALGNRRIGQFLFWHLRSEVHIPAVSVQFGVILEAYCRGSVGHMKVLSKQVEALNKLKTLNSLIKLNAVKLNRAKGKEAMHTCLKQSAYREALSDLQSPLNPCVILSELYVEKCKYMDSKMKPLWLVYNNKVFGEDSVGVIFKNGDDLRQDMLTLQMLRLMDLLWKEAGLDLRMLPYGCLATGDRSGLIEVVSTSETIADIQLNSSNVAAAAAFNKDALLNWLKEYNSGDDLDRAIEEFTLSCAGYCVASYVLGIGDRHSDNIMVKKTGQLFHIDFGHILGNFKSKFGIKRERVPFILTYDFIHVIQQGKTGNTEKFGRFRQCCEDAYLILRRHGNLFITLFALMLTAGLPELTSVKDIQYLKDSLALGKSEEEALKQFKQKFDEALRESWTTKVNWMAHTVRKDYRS

Chain of PIK3CG (human) (P48736 whole entry, looked up): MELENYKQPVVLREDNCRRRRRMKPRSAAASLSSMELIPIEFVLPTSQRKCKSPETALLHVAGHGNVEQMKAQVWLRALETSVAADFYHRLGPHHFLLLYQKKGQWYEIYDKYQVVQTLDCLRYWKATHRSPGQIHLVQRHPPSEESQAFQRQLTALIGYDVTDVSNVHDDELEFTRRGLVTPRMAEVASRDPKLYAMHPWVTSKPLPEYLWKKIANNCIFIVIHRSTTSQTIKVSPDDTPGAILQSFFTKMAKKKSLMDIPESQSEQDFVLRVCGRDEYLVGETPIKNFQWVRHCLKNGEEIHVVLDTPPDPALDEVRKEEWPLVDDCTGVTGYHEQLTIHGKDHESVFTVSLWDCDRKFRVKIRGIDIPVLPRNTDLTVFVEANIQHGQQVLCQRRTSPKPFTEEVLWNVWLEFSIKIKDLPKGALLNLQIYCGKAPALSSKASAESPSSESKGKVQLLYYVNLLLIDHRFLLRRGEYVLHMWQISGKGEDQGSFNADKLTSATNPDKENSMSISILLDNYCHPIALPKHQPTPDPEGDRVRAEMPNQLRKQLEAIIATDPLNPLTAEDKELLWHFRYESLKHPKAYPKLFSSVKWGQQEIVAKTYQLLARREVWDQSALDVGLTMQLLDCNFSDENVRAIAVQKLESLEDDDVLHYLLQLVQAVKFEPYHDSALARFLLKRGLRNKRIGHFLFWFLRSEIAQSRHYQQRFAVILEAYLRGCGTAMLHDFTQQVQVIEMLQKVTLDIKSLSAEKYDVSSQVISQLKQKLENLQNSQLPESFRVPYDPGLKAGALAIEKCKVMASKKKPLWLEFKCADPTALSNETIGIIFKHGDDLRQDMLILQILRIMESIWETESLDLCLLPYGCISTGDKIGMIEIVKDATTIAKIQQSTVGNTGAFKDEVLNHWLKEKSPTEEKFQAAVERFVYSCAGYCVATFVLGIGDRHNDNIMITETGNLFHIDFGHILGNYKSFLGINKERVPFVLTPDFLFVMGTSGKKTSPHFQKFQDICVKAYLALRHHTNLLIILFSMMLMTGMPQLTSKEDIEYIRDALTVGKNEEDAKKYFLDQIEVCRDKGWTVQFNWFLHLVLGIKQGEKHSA
Chain of PIK3CD (Human) (O00329 whole entry, looked up): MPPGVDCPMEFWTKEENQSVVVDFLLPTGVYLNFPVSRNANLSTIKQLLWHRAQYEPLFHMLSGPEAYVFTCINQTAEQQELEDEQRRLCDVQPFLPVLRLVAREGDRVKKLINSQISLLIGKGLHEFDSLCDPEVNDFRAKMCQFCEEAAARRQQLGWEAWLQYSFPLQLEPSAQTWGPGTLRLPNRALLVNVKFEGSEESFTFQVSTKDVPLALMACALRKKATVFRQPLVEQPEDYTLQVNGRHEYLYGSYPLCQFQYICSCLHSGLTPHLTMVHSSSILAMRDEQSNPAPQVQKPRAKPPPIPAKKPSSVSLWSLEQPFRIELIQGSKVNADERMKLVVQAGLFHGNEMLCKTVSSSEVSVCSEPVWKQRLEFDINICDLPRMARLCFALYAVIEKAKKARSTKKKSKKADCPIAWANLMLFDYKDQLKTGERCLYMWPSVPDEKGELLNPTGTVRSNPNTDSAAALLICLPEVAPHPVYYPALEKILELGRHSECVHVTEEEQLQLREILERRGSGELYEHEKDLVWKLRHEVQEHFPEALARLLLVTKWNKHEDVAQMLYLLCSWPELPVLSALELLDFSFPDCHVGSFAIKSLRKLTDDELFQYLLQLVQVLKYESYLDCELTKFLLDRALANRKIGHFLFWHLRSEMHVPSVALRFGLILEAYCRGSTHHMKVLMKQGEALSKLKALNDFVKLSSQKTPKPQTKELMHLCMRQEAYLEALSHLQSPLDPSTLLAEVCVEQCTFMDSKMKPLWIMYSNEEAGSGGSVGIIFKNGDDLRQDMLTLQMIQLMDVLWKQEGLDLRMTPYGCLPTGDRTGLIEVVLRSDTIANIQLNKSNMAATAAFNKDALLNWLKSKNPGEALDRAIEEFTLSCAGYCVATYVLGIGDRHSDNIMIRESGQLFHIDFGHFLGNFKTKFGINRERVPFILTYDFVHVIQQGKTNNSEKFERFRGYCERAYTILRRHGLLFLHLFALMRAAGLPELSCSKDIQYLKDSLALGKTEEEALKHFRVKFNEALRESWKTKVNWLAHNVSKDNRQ

SMILES | IC50 [1] [nM] | IC50 [2] [nM] | IC50 [3] [nM] | IC50 [4] [nM]
C[C@H](NC(=O)c1c(N)nn2cccnc12)c1cc2cccc(C#Cc3cocn3)c2c(=O)n1-c1ccccc1 | 100 to 500 | 1 to 100 | 1000 to 5000 | 1000 to 5000
C[C@H](NC(=O)c1c(N)nn2cccnc12)c1cc2cccc(C#Cc3ccccn3)c2c(=O)n1-c1ccccc1 | 500 to 1000 | 100 to 500 | 5000 to 10000 | 5000 to 10000
C[C@H](NC(=O)c1c(N)nn2cccnc12)c1cc2cccc(C#CC3CNC3)c2c(=O)n1-c1ccccc1 | 1000 to 10000 | 500 to 1000 | 1000 to 5000 | 5000 to 10000
C#Cc1cccc2nc([C@H](C)NC(=O)c3c(N)nn4cccnc34)n(-c3ccc(F)cc3)c(=O)c12 | 1 to 100 | 1 to 100 | 1000 to 5000 | 5000 to 10000
Cc1c(C#Cc2cccc3cc([C@H](C)NC(=O)c4c(N)nn5cccnc45)n(-c4ccccc4)c(=O)c23)cnn1C | 500 to 1000 | 100 to 500 | 5000 to 10000 | 5000 to 10000
C[C@H](O)C#Cc1cccc2cc([C@H](C)NC(=O)c3c(N)nn4cccnc34)n(-c3ccccc3)c(=O)c12 | 100 to 500 | 1 to 100 | 1000 to 5000 | 1000 to 5000
CC#Cc1cccc2cc(C(C)NC(=O)c3c(N)nn4cccnc34)c(-c3ccccc3)nc12 (stereo not drawn) | 1 to 100 | 100 to 500 | 1000 to 5000 | 1000 to 5000
C[C@H](NC(=O)c1c(N)nn2cccnc12)c1cc2cccc(C#Cc3cncn3C)c2c(=O)n1-c1ccccc1 | 500 to 1000 | 100 to 500 | 5000 to 10000 | 5000 to 10000
Cc1nn(C)cc1C#Cc1cccc2cc([C@H](C)NC(=O)c3c(N)nn4cccnc34)n(-c3ccccc3)c(=O)c12 | 500 to 1000 | 100 to 500 | 5000 to 10000 | 5000 to 10000
C#Cc1cccc2nc([C@H](C)NC(=O)c3c(N)nn4cccnc34)n(-c3ccccc3)c(=O)c12 | 1 to 100 | 1 to 100 | 1000 to 5000 | 1000 to 5000
C[C@H](NC(=O)c1c(N)nn2cccnc12)c1cc2cccc(C#Cc3ccn(C)n3)c2c(=O)n1-c1ccccc1 | 100 to 500 | 100 to 500 | 5000 to 10000 | 5000 to 10000
C[C@H](NC(=O)c1c(N)nn2cccnc12)c1cc2cccc(C#Cc3cscn3)c2c(=O)n1-c1ccccc1 | 100 to 500 | 1 to 100 | 1000 to 5000 | 1000 to 5000
C[C@H](NC(=O)c1c(N)nn2cccnc12)c1cc2cccc(C#Cc3ccccc3)c2c(=O)n1-c1ccccc1 | 1 to 100 | 1000 to 5000 | 1 to 500 | 5000 to 10000
C[C@H](NC(=O)c1c(N)nn2cccnc12)c1cc2cccc(C#CC3CCNCC3)c2c(=O)n1-c1ccccc1 | 1000 to 10000 | 500 to 1000 | 5000 to 10000 | 5000 to 10000
C[C@H](NC(=O)c1c(N)nn2cccnc12)c1cc2cccc(C#CCO)c2c(=O)n1-c1ccccc1 | 1 to 100 | 1 to 100 | 500 to 1000 | 1000 to 5000
C[C@H](NC(=O)c1c(N)nn2cccnc12)c1cc2cccc(C#CCN3CCOCC3)c2c(=O)n1-c1ccccc1 | 1000 to 10000 | 100 to 500 | 5000 to 10000 | 5000 to 10000
Cc1ncc(C#Cc2cccc3cc([C@H](C)NC(=O)c4c(N)nn5cccnc45)n(-c4ccccc4)c(=O)c23)s1 | 100 to 500 | 100 to 500 | 5000 to 10000 | 5000 to 10000
CC#Cc1cccc2nc([C@H](C)NC(=O)c3c(N)nn4cccnc34)n(-c3ccccc3)c(=O)c12 | 1 to 100 | 1 to 100 | 500 to 1000 | 1000 to 5000

SMILES | IC50 [1] [nM] | IC50 [2] [nM] | IC50 [3] [nM] | IC50 [4] [nM]
Cc1ncsc1C#Cc1cccc2cc([C@H](C)NC(=O)c3c(N)nn4cccnc34)n(-c3ccccc3)c(=O)c12 | 1000 to 10000 | 1000 to 5000 | 5000 to 10000 | 5000 to 10000
C[C@H](NC(=O)c1c(N)nn2cccnc12)c1cc2cccc(C#Cc3cncs3)c2c(=O)n1-c1ccccc1 | 100 to 500 | 100 to 500 | 5000 to 10000 | 5000 to 10000
COc1cnc(C(=O)N[C@@H](C)c2cc3cccc(C#Cc4cnn(C)c4)c3c(=O)n2-c2ccccc2)c(N)n1 | 1000 to 10000 | > 5000 | 5000 to 10000 | 5000 to 10000
COCC#Cc1cccc2cc([C@H](C)NC(=O)c3c(N)nn4cccnc34)n(-c3ccccc3)c(=O)c12 | 100 to 500 | 1 to 100 | 1000 to 5000 | 1000 to 5000
C[C@H](NC(=O)c1nccnc1N)c1cc2cccc(C#Cc3cnn(C)c3)c2c(=O)n1-c1ccccc1 | 1 to 100 | 100 to 500 | 1000 to 5000 | 1000 to 5000
C[C@H](NC(=O)c1c(N)nn2cccnc12)c1cc2cccc(C#CC3CC3)c2c(=O)n1C1CC1 | 100 to 500 | 1000 to 5000 | 1000 to 5000 | 1000 to 5000
C[C@H](NC(=O)c1c(N)nn2cccnc12)c1nc2cccc(C#Cc3cnn(C)c3)c2c(=O)n1C | 500 to 1000 | 1000 to 5000 | 5000 to 10000 | 1000 to 5000
COc1ccc(C#Cc2cccc3cc([C@H](C)NC(=O)c4c(N)nn5cccnc45)n(-c4ccccc4)c(=O)c23)cn1 | 500 to 1000 | 100 to 500 | 5000 to 10000 | 5000 to 10000
C[C@H](NC(=O)c1c(N)nn2cccnc12)c1cc2cccc(C#CC(F)(F)F)c2c(=O)n1-c1ccccc1 | 500 to 1000 | 1000 to 5000 | 5000 to 10000 | 5000 to 10000
Cc1ncc(C#Cc2cccc3cc([C@H](C)NC(=O)c4c(N)nn5cccnc45)n(-c4ccccc4)c(=O)c23)n1C | 500 to 1000 | 1 to 100 | 5000 to 10000 | 5000 to 10000
C#Cc1cccc2nc([C@H](C)NC(=O)c3c(N)nn4cccnc34)n(C)c(=O)c12 | 1 to 100 | 500 to 1000 | 1000 to 5000 | 500 to 1000
CC(=O)N1CCC(C#Cc2cccc3cc([C@H](C)NC(=O)c4c(N)nn5cccnc45)n(-c4ccccc4)c(=O)c23)CC1 | 500 to 1000 | 100 to 500 | 5000 to 10000 | 5000 to 10000
C[C@H](NC(=O)c1c(N)nn2cccnc12)c1cc2cccc(NC(=O)c3cnn(C)c3)c2c(=O)n1-c1ccccc1 | 1000 to 10000 | 1000 to 5000 | 5000 to 10000 | 5000 to 10000
C[C@H](NC(=O)c1c(N)nn2cccnc12)c1cc2cccc(C#CCN3CCN(C)CC3)c2c(=O)n1-c1ccccc1 | 100 to 500 | 100 to 500 | 5000 to 10000 | 5000 to 10000
C[C@H](NC(=O)c1c(N)nn2cccnc12)c1cc2cccc(C#CC3(O)CN4CCC3CC4)c2c(=O)n1-c1ccccc1 (stereo partly drawn) | 1000 to 10000 | 500 to 1000 | 5000 to 10000 | 5000 to 10000
C[C@H](NC(=O)c1c(N)nn2cccnc12)c1cc2cccc(C#Cc3cccnc3)c2c(=O)n1-c1ccccc1 | 100 to 500 | 100 to 500 | 5000 to 10000 | 5000 to 10000
COc1ncc(C#Cc2cccc3cc([C@H](C)NC(=O)c4c(N)nn5cccnc45)n(-c4ccccc4)c(=O)c23)cn1 | 100 to 500 | 100 to 500 | 5000 to 10000 | 5000 to 10000
C[C@H](NC(=O)c1c(N)nn2cccnc12)c1cc2cccc(C#Cc3cnn(C)c3)c2c(=O)n1C1CC1 | 100 to 500 |  | 5000 to 10000 | 1000 to 5000

Reference: the Kinase Knowledgebase extract (Sharma et al. 2016)
